Experimental data from PubChem BioAssay AID1199 (EPA DSSTox, 2008).
The source made the active and inactive calls.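 How the source made its calls: active means a tumour-causing dose and a tumour site recorded for mice in at least one sex group; inconclusive means only government mouse studies exist and were judged inadequate; inactive means mouse studies exist but none gave tumours.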

Tested on: mouse carcinogenicity bioassay, TD50 from CPDB
Assay: DSSTox (CPDBAS) Carcinogenic Potency Database Summary Mouse Bioassay Results
Details: for outcome: TD50_Mouse_Note: no positive results
Source text: The Carcinogenic Potency Database (CPDB) is a unique and widely used international resource of the results of over 6500 chronic, long-term animal cancer tests on over 1500 chemical substances. The CPDB provides easy access to the bioassay literature, with qualitative and quantitative analyses of both positive and negative experiments that have been published over the past 50 years in the general literature and by the National Cancer Institute/National Toxicology Program. The CPDB standardizes the diverse literature of cancer bioassays that vary widely in protocol, histopathological examination and nomenclature, and in the published author's choices of what information to provide in their papers. Results are reported in the CPDB for tests in rats, mice, hamsters, dogs, and nonhuman primates, and are based on the most positive result among all experiments for each sex-species. The DSSTox CPDBAS (all species) file incorporates data from the CPDB Summary Tables for the full list of over 1500 chemical substances tested in at least one species. Summary bioassay results for Mouse (TD50, tumor sites, male, female, both sexes) are provided in the CPDB Summary Tables and the DSSTox CPDBAS file for over 1000 chemical substances.
TD50 is a standardized quantitative measure of carcinogenic potency (analogous to an LD50) and is reported in the CPDB Summary Table for each species. Activity Score for actives is computed by mapping of LOG10 (1/TD50_Mouse_mmol) activity values spanning range [MIN, MAX] onto Integer 1-100 Activity Score range, where 100 is highest potency and 1 is lowest: Activity Score = 100 * INTEGER[(log10(1/Activity) - MIN)/(MAX […] MIN)]. If activity is reported but no TD50_Mouse_mmol value is computed, such as for a mixture, the Activity Score is assigned the activity value "50". […] Target sites are reported for each sex-species group with a positive result in the CPDB on the basis of a positive author's opinion for the particular site, using all results from both the general literature and NCI/NTP bioassays. If a chemical has two or more target sites listed, the results may be from different experiments, and a single site may be a target organ in more than one experiment, as well. Blank entry in TargetSites field indicates no results reported.

[1] = TargetSites_Mouse_Female: no positive results
[2] = TD50_Mouse_Note: TD50 is harmonic mean of more than one positive test, TargetSites_Mouse_Female: liver
[3] = TargetSites_Mouse_Female: liver

How did the outcome [1] turn out when CCN(Cc1cccc(S(=O)(=O)O)c1)c1ccc(C(=C2C=CC(=[N+](CC)Cc3cccc(S(=O)(=O)O)c3)C=C2)c2ccccc2S(=O)(=O)[O-])cc1 was run?
The outcome was “inactive; no positive results”.

For ClC1=C(Cl)C2(Cl)C3C(Cl)C=CC3C1(Cl)C2(Cl)Cl (stereo not given), which Potency [2] is on record?
The Potency was 0.00324 mmol/kg/day.

For NC(=O)Cc1c([O-])on[n+]1Cc1ccccc1, which Potency [3] is on record?
Its Potency is 0.0437 mmol/kg/day.

With NNc1nc(-c2ccc([N+](=O)[O-])o2)cs1 as the molecule, how does the Potency (TargetSites_Mouse_Female: stomach) read?
Its Potency is 0.0725 mmol/kg/day.

With CC(O)COC(C)(C)C (stereo not given) as the molecule, how does the Potency [2] read?
The Potency was 14.1 mmol/kg/day.

With CC(=O)OC1CC(C)OC(C)O1 (stereo not given) as the molecule, how does the outcome [1] read?
Its outcome is “inactive; no positive results”.

NN was tested. Which Potency (TD50_Mouse_Note: TD50 is harmonic mean of more than one positive test, TargetSites_Mouse_Female: lung) did it give?
The Potency was 0.0914 mmol/kg/day.

For Cn1cnc([N+](=O)[O-])c1Sc1ncnc2nc[nH]c12, which Potency (TargetSites_Mouse_Female: hematopoietic system, vascular system) is on record?
Its Potency is 0.0322 mmol/kg/day.

How did the Potency [2] turn out when Cc1c(N(C)CS(=O)(=O)O)c(=O)n(-c2ccccc2)n1C was run?
Its Potency is 1.89 mmol/kg/day.

For Nc1ccc(N)cc1, which outcome [1] is on record?
Its outcome is “inactive; no positive results”.

How did the outcome [1] turn out when S=C([S-])NCCNC(=S)[S-].[Mn+2] was run?
The outcome was “inactive; no positive results”.

How did the Potency (TD50_Mouse_Note: TD50 is harmonic mean of more than one positive test, TargetSites_Mouse_Female: gall bladder, liver, lung) turn out when CC(C)C/C=N/N(C)C=O was run?
The Potency was 0.0157 mmol/kg/day.

Which outcome [1] does the source give for Clc1ccccc1 here?
The outcome was “inactive; no positive results”.

For Cc1c2ccccc2c(C)c2c1ccc1ccccc12, which Potency (TargetSites_Mouse_Female: vascular system) is on record?
The Potency was 0.000328 mmol/kg/day.

Which Potency (TD50_Mouse_Note: TD50 is harmonic mean of more than one positive test, TargetSites_Mouse_Female: liver, lung) does the source give for CCCCC/C=N/N(C)C=O here?
The Potency was 0.0149 mmol/kg/day.

How did the outcome [1] turn out when CC1=NN(c2ccccc2)C(=O)C1 was run?
Its outcome is “inactive; no positive results”.

For NC(=O)c1ccccc1C(N)=O, which outcome [1] is on record?
Its outcome is “inactive; no positive results”.

For Nc1cc([N+](=O)[O-])ccc1C(=O)O, which outcome [1] is on record?
Its outcome is “inactive; no positive results”.

With [Cl-].[Hg+] as the molecule, how does the outcome read?
The outcome was “inactive; no positive results”.

With NNc1nc(-c2ccc([N+](=O)[O-])cc2)cs1 as the molecule, how does the Potency (TargetSites_Mouse_Female: hematopoietic system) read?
Its Potency is 0.0449 mmol/kg/day.

OC[C@@H](O)[C@H]1O[C@@H]2O[C@H](C(Cl)(Cl)Cl)O[C@@H]2[C@H]1O was tested. Which outcome [1] did it give?
The outcome was “inactive; no positive results”.

With CCCCN(CC)C(=O)SCCC as the molecule, how does the outcome [1] read?
The outcome was “inactive; no positive results”.

How did the outcome [1] turn out when NC(=O)c1ccncc1 was run?
Its outcome is “inactive; no positive results”.

Which Potency [1] does the source give for Nc1ccc(-c2ccc(N)c(N)c2)cc1N here?
The Potency was 0.8 mmol/kg/day.

Which outcome [1] does the source give for CCOP(=S)(OCC)SC1OCCOC1SP(=S)(OCC)OCC (stereo not given) here?
The outcome was “inactive; no positive results”.

With CC(=O)OC[C@]12C[C@H](OC(=O)CC(C)C)C(C)=C[C@H]1O[C@@H]1[C@H](O)[C@@H](OC(C)=O)[C@@]2(C)C12CO2 (stereo not given in full) as the molecule, how does the Potency [1] read?
The Potency was 0.00189 mmol/kg/day.

For O=C(O)O, which outcome is on record?
Its outcome is “inactive; no positive results”.

For COc1c(Cl)c(Cl)c(Cl)c(Cl)c1Cl, which Potency [1] is on record?
The Potency was 0.243 mmol/kg/day.

NC(=O)N/N=C/c1ccc([N+](=O)[O-])o1 was tested. Which Potency (TargetSites_Mouse_Female: ovary) did it give?
Its Potency is 0.155 mmol/kg/day.

For CCCCN(CCCC)C(=S)[S-].CCCCN(CCCC)C(=S)[S-].[Zn+2], which outcome [1] is on record?
The outcome was “inactive; no positive results”.

COC(C)(C)C was tested. Which Potency [3] did it give?
Its Potency is 74.3 mmol/kg/day.

Which outcome [1] does the source give for CC1(C)[C@@H](OC2O[C@H](C(=O)O)[C@@H](O)[C@H](O)[C@H]2O[C@H]2O[C@H](C(=O)O)[C@@H](O)[C@H](O)[C@H]2O)CC[C@]2(C)[C@H]3C(=O)C=C4[C@@H]5C[C@@](C)(C(=O)O)CC[C@]5(C)CC[C@@]4(C)[C@]3(C)CC[C@@H]12 (stereo not given in full) here?
Its outcome is “inactive; no positive results”.

Which Potency (TD50_Mouse_Note: TD50 is harmonic mean of more than one positive test, TargetSites_Mouse_Female: harderian gland, pituitary gland, vascular system) does the source give for C=CC(=C)C here?
Its Potency is 4.02 mmol/kg/day.

With O=[N+]([O-])/C=C/c1ccccc1 as the molecule, how does the outcome [1] read?
The outcome was “inactive; no positive results”.

For NS(=O)(=O)c1cc(C(=O)O)c(NCc2ccco2)cc1Cl, which Potency (TargetSites_Mouse_Female: mammary gland) is on record?
The Potency was 2.21 mmol/kg/day.

How did the outcome [1] turn out when CC(C)NCC(O)COc1cccc2ccccc12 (stereo not given) was run?
Its outcome is “inactive; no positive results”.

How did the Potency (TD50_Mouse_Note: TD50 is harmonic mean of more than one positive test, TargetSites_Mouse_Female: liver, thyroid gland) turn out when O=C1Nc2ccc(Cl)cc2C(c2ccccc2)=NC1O (stereo not given) was run?
The Potency was 0.125 mmol/kg/day.

CC(Oc1cc(Cl)c(Cl)cc1Cl)C(=O)O (stereo not given) was tested. Which outcome [1] did it give?
The outcome was “inactive; no positive results”.

How did the Potency [2] turn out when ClC(Cl)C(Cl)(Cl)Cl was run?
The Potency was 0.283 mmol/kg/day.

With CC(C)(C)NC(=O)[C@H]1CC[C@H]2[C@@H]3CC[C@H]4NC(=O)C=C[C@]4(C)[C@H]3CC[C@]12C as the molecule, how does the Potency read?
Its Potency is 0.875 mmol/kg/day.
